Reference: US20110230478A1 (Bayer ScienceCrop AG, priority 2008, published 2011)

assay: logP by HPLC on reversed-phase columns (C 18), EEC Directive 79/831 Annex V.A8; type: physicochemical; conditions: method marker [a]

| Compound | logP |
| --- | --- |
| CCN(CC)c1ccc(Nc2ncc(Cl)c(NC3CCCCC3)n2)cc1 [Example 265] | 1.69[a] |

same assay, conditions: method marker [a]; footnote not given

| Compound | logP |
| --- | --- |
| CC(=O)c1cccc(Nc2ncc(Cl)c(N(C)C(C)C)n2)c1.Cl [Example 45] | 2.5[a] |
| CN(C)c1nc(Nc2ccc(S(C)(=O)=O)cc2)ncc1Cl [Example 28] | 1.98[a] |
| COCCNc1nc(Nc2cc(OC)cc(OC)c2)ncc1Cl.Cl [Example 62] | 1.67[a]; |
| CC(C)Oc1ccc(Nc2ncc(Cl)c(NCCO)n2)cc1.Cl [Example 59] | 1.48[a] |
| CCC(CO)Nc1nc(Nc2cccc(C(C)=O)c2)ncc1Cl (stereo not drawn) [Example 21] | 1.53[a] |
| COc1cc(Nc2ncc(Cl)c(NCCO)n2)cc(OC)c1OC.Cl [Example 55] | 1.09[a] |
| COCC(C)Nc1nc(Nc2cccc(Cl)c2)ncc1Cl (stereo not drawn) [Example 10] | 2.58[a] |

same assay, conditions: method marker [b] (compound 257: pH2.7)

| Compound | logP |
| --- | --- |
| CN(C)S(=O)(=O)c1ccc(Nc2ncc(Cl)c(NC3CCCCC3)n2)cc1 [Example 263] | 3.18[b] |
| CC(C)Nc1nc(Nc2ccccc2)ncc1Br [Example 247] | 1.89[b] |
| C=CCNc1nc(Nc2ccccc2)ncc1Cl [Example 286] | 1.64[b] |
| Clc1cnc(Nc2ccccc2)nc1NC1CCCC1 [Example 254] | 2.28[b] |
| Clc1cccc(Nc2ncc(Cl)c(NC3CCCCC3)n2)c1 [Example 258] | 3.81[b] |

same assay, conditions: method marker [b]; footnote not given; compound 68 value matches logP (pH 2.3)

| Compound | logP |
| --- | --- |
| COCC(C)Nc1nc(Nc2ccc(OC(F)(F)F)c(Cl)c2)ncc1Br (stereo not drawn) [Example 118] | 4.23[b] |
| COCC(C)Nc1nc(Nc2ccc(OC)cc2)ncc1Br (stereo not drawn) [Example 110] | 1.63[b] |
| COCC(C)Nc1nc(Nc2cccc(Cl)c2)ncc1Br (stereo not drawn) [Example 71] | 2.82[b] |
| COCCNc1nc(Nc2cc(OC)cc(OC)c2)ncc1Cl.Cl [Example 62] | 1.67[b] |
| COCC(C)Nc1nc(Nc2ccc3c(c2)OC(F)(F)C(F)(F)O3)ncc1Cl (stereo not drawn) [Example 92] | 3.85[b] |
| COCC(C)Nc1nc(Nc2ccc(F)cc2F)ncc1Br (stereo not drawn) [Example 73] | 2.16[b] |
| COCC(C)Nc1nc(Nc2cccc(S(=O)(=O)N(C)C)c2)ncc1Br (stereo not drawn) [Example 72] | 2.37[b] |
| COCC(C)Nc1nc(Nc2ccc3c(c2)CCC3=O)ncc1Cl (stereo not drawn) [Example 103] | 1.97[b] |
| COCC(C)Nc1nc(Nc2cccc(C#N)c2)ncc1Br (stereo not drawn) [Example 108] | 2.26[b] |

same assay, conditions: method marker [c]

| Compound | logP |
| --- | --- |
| CC(C)Nc1nc(Nc2ccccc2)ncc1Br [Example 247] | 3.7[c]; |
| C=CCNc1nc(Nc2ccccc2)ncc1Cl [Example 286] | 3.1[c]; |

same assay, conditions: reversed-phase HPLC column (C 18), pH 2.3, pH 2.3, 0.1% aqueous phosphoric acid and acetonitrile; read-out: logP [a]

| Compound | chromatographic logP |
| --- | --- |
| CN1CCN(Cc2cccc([N+](=O)[O-])c2)C1=O [1-methyl-3-(3-nitrobenzyl)imidazolidin-2-one] | 2.03 |
| OCCNc1nc(Cl)ncc1Cl [Example V-5, 2,5-dichloro-N-(2-hydroxyethyl)pyrimidine-4-amine] | 0.97 |
| COCCNc1nc(Cl)ncc1Cl [Example V-3, 2,5-dichloro-N-(2-methoxyethyl)pyrimidine-4-amine] | 1.65 |
| CC(NS(=O)(=O)Cc1cccc([N+](=O)[O-])c1)c1ccccc1 (stereo not drawn) [IV-3, N-(1-phenylethyl)-1-(3-nitrophenyl)methanesulphonamide] | 2.63 |
| COCCN(C)c1nc(Nc2ccccc2)ncc1Cl [Example 222, 5-Chloro-N^4-(2-methoxyethyl)-N^4-methyl-N^2-phenylpyrimidine-2,4-diamine] | 2.02 |

same assay, conditions: reversed-phase HPLC column (C 18), pH 2.3, values marked [a]; pH 2.3; read-out: logP

| Compound | chromatographic logP |
| --- | --- |
| COCCN(C)c1nc(Nc2ccccc2)ncc1Cl [Example 222, 5-Chloro-N^4-(2-methoxyethyl)-N^4-methyl-N^2-phenylpyrimidine-2,4-diamine] | 2.02 |

same assay, conditions: values marked [b]; footnote not given

| Compound | logP |
| --- | --- |
| COCC(C)Nc1nc(Nc2ccc(C(=O)Nc3ccccc3)cc2)ncc1Cl (racemic) [Example 141] | 1.8[b] |
| CC(=O)N1CCc2ccc(Nc3ncc(Cl)c(NC(C)C)n3)cc21 [Example 206] | 1.61[b] |
| CCOCCN(C)c1nc(Nc2ccccc2)ncc1Br [Example 237] | 2.55[b] |
| CN(C)c1nc(Nc2ccccc2)ncc1Br [Example 178] | 1.86[b] |
| COCC(Nc1nc(Nc2ccccc2)ncc1Cl)C(C)C (stereo not drawn) [Example 176] | 2.33[b] |
| COCC(C)Nc1nc(Nc2ccc(SC)cc2)ncc1Cl (stereo not drawn) [Example 149] | 2.06[b] |
| COCC(C)Nc1nc(Nc2ccc(NC=O)cc2)ncc1Cl (racemic) [Example 138] | 1.28[b] |

same assay, conditions: values marked [c]; footnote not given

| Compound | logP |
| --- | --- |
| CC(C)Nc1nc(Nc2cccc(CC#N)c2)ncc1Cl [Example 236] | 1.69[c] |
| CCOCCN(C)c1nc(Nc2ccccc2)ncc1Br [Example 237] | 3.95[c]; |
